Experimental data: patent publication US4730069A, “Cis-platinum complexes with a pentaerythritol derivative as the ligand, a process for their preparation and a pharmaceutical agent containing these compounds” (Behringwerke Aktiengesellschaft, priority 1984, dated 1988)

Tested on: NMRI mice
Experiment: Determination of the acute toxicity (NMRI mice, intravenous)
Assay type: in vivo
Settings: intravenous on day 0, survival on day 14, which LD not stated
Description: To determine the acute toxicity, NMRI mice are injected intravenously on day 0 with different doses of the test substance, dissolved in 0.5 ml of physiological saline solution. Control groups receive only 0.5 ml of physiological saline solution. 5 mice are used per concentration of the test substance. On day 14, the number of surviving mice is determined and the LD5, LD50 and LD95 are determined therefrom by the Litchfield Wilcoxon method. The toxicity of the compounds described here is summarized in comparison with cisplatin in Table 1.

5,5-Bis-(aminomethyl)-2-methyl-2-octadecyl-1,3-dioxane-platinum(II) hydroxide [Compound 57]
Acute toxicity (LD5, LD50 and LD95 by the Litchfield Wilcoxon method) (Table 1, column c): 3.4
